From a melting point compilation (Tetko et al.; mined from patent text by program, amines drawn as free bases though some values may be those of a salt)

melting point [°C]	Compound
82 to 84	CCC(c1ccccn1)N(Cc1ccc(C(=O)OC)cc1)S(=O)(=O)c1ccc(F)cc1 (configuration not stated)
218 to 220	O=C(O)C(=O)c1ccc(OCC(=O)N2CCc3ccccc3C2)cc1
167 to 170	COc1ccc(C(=O)O)cc1C#CCN(C)C
173 to 175	C/C(=C(\C#N)C(N)=S)N1CC[C@@H]2CCCC[C@H]2C1 (relative stereo)
141 to 142	O=C(c1ccc([N+](=O)[O-])cc1)N1CCCCc2sccc21
134 to 137	CN1CCN(C(=O)Nc2ccccc2CCc2cc(C(C)(C)C)c(O)c(C(C)(C)C)c2)CC1
134 to 136	CC(C)CCCC(NC(=O)OC(C)(C)C)c1nc(-c2cccc(Br)c2)c[nH]1 (configuration not stated)
240	CCCC(=O)Nc1n[nH]c2cc(-c3ccc4c(c3)OCO4)ccc12
86 to 88	CCOC(=O)COCc1nnc(S)n1C
104 to 107	CCC(CC)Nc1cc(C)nc(Nc2c(C)cc(C)cc2C)c1[N+](=O)[O-]
66 to 68	CNc1cc(Oc2cccc(C(F)(F)F)c2)nc(C(=O)O)c1
185 to 186	N/C(=C1/Sc2ccccc2C1=O)c1ccccc1[N+](=O)[O-]
150 to 153	CCCCOCCOc1ccc(-c2ccc3c(c2)C=C(C(=O)OC)CCN3c2ccc(S(=O)(=O)N(C)C)cc2)cc1
203	O=c1ccn([C@@H]2C=CCC[C@@H]2O)c(=O)[nH]1 (racemic)
264	Cc1c(-c2ccnn2-c2ccc(C#N)cc2)nc(C(N)=O)c(=O)n1-c1cccc(C(F)(F)F)c1
175 to 177	COc1cc(C(O)CS(C)(=O)=O)cc(OC)c1N(C)C(C)=O (configuration not stated)
39.9 to 40.4	COCCOC(=O)N=NC(=O)OCCOC
102 to 104	COc1cccc(Oc2ccc([N+](=O)[O-])cc2C#N)c1
181 to 183	COc1cc(OC(C)(C)C(=O)O)c(-c2cccs2)cc1/C=C/C(=O)c1ccc(NS(C)(=O)=O)cc1
175 to 177	CN1CCCC1=NCCSc1cc2ccccc2[nH]1
102 to 103	CCOC(=O)CN(C(=O)C(F)(F)F)C(Sc1ccccc1)P(=O)(O)ONC(C)C (configuration not stated)
126	CN1CCC(OC2c3ccccc3CCn3cc(I)nc32)CC1 (configuration not stated)
118	COc1ccccc1C(=O)NCCc1ccc(-c2ccc(O)cc2)cc1
115 to 120	OCC(O)CSSc1nc2ccccc2s1 (configuration not stated)

melting point [°C]	Compound
183 to 187	CCCCCCCCCCCCS(=O)(=O)Nc1ccccc1C(=O)Nc1cc(Cl)c2c(c1O)CN(C)C(=O)N2
115 to 116	COc1ccc(CC(=O)O)c(C(C)=O)c1
84.5	COc1cc(-c2nc3ccccc3n2Cc2ccc(C)cc2)cc(OC)c1OC
175 to 176	O=C(Nc1c(C(O)(C(F)(F)F)C(F)(F)F)ccc2ccccc12)c1ccc(Cl)cc1
175	Nc1ccc2ccc(-c3ccc(F)cc3)nc2n1
167 to 169	COc1ccc2c(c1)N(c1ccc(F)cc1)C(=O)C2(C)NC(=O)OCc1ccccc1 (configuration not stated)
146 to 147	CC1(C)SC(C)(C)N(C(=O)COc2ccc(Cl)cc2)C1C(=O)O (configuration not stated)
131 to 132	CSc1ncc(CNc2ccccc2Cl)c(Nc2ccccc2)n1
176 to 177	CCCC[C@H]1CC[C@H](OC(=O)c2cc(Sc3ccc(C)cc3)c3c(c2N)C(=O)c2ccccc2C3=O)CC1
143 to 144	Cc1c(Cc2ccc(C(C)C)cc2)c2c(c(C)c1NC(=O)CC(C)(C)C)CC(C)(CN1CCCC1)O2 (configuration not stated)
50.5 to 51.5	COC(=O)c1c(C(F)F)nc(C(F)(F)F)c(C(=O)OC)c1CSC
104 to 106	CCOC(=O)CCCSc1nccc(NC(=S)NCC(F)(F)F)n1
95	O=Cc1cncc(Br)c1
242	Cc1cn(-c2cc(Br)c3c(c2)CCC(=O)N3)c(C)n1
52 to 54	C=CC(O)CCCC(O)CCCC1(C)OCCO1 (configuration not stated)
166 to 168	COc1cc(C(=O)NS(=O)(=O)c2ccccc2C)ccc1Cc1cccc2ccc(CCCC(=O)N(C)C)cc12
139 to 140	CCCC(=O)Cc1ccc(C(=O)Nc2ccc3cc(CN4CCCC4)cnc3c2C)cc1
140 to 142	COc1ccc(-c2ccc(CC(=O)O)cc2F)cc1
44	CCCCCCCCCCCCCCCCC(C(=O)OC(C)(C)C)C(=O)c1ccc(C(=O)OC(C)C)c(Cl)c1 (configuration not stated)
107 to 109	CCOC(=O)c1cnc2nn(C)cc2c1OC(C)C
189	O=C(O)Cn1c(=O)c2cc(Cl)ccc2n(Cc2ccc(Br)cc2F)c1=O
162 to 164	COc1cc(OC)c(C(O)C(Cl)(Cl)Cl)cc1OC (configuration not stated)
118	Fc1ccc(N2CCC(NCc3ccn4c(CC5CC5)nnc4c3C(F)(F)F)CC2)c(F)c1
96 to 97	CCC(=O)C(=CN(C)C)Oc1cc(Cl)cc(Cl)c1

melting point [°C]	Compound
101 to 102	CCc1cccc(C)c1S(=O)(=O)c1nn(C(=O)N(CC)CC)cc1C#N
170 to 172	Cc1cccc(NC(=O)C(=O)OCC#CI)c1
93 to 94	CCC(Oc1cc(C)cc(C)c1)C(=O)NCc1ccccc1 (configuration not stated)
> 250	COc1cc([N+](=O)[O-])ccc1S(=O)(=O)n1c(=O)n(-c2ccccc2)c2cc(Cl)ccc21
143 to 146	COc1ccc2c(=O)c(N)coc2c1
184 to 185	C#CCN(C(=O)OC)C1CN(C(=O)Nc2ccc(OC(F)(F)F)cc2)N=C1c1ccc(Cl)cc1 (configuration not stated)
55 to 57	c1cc2c(s1)CCCCN2
115 to 117	CCOC(=O)c1[nH]c(C)c(CC(C)C)c1C
172 to 174	Cc1ccc2cc(NC(=O)c3cccc(SCc4cc(Nc5ccccc5)n[nH]4)c3)ccc2n1
152	O=C1CNN(Cc2cccc(C(F)(F)F)c2)C(=O)N1
214 to 216	CN(C)C(=O)Nc1nc2ccccc2s1
100 to 102	Cc1cccc(-c2[nH]c(C(C)C)nc2-c2ccc(F)c(-c3ccc(S(C)=O)nc3)c2)n1 (configuration not stated)
186 to 187	COc1ccc(CC2=C(C)N=NC2=O)cc1OC1CCCC1
189	CN1CCc2[nH]c3ccc4sccc4c3c2C1
133 to 134	O=C(C=Cc1ccccc1[N+](=O)[O-])CC(=O)NC1CC1
144	CC(CCCCCc1nc(-c2ccc(Cl)cc2)c(-c2ccc(Cl)cc2)o1)c1nnn[nH]1 (racemic)
192	Nc1cc(=O)n(Cc2ccc(F)cc2Cl)[nH]1
79	Cn1ccc2ccc(OCc3ccccc3)cc21
223 to 224	CN(C)CCNC(=O)[C@H]1C[C@H](NC(=O)Nc2ccccc2)c2c(Cl)cc(Cl)cc2N1 (relative stereo)
223 to 224	COc1cc(N)c(Cl)cc1C(=O)NN1CCN(Cc2ccsc2)CC1
> 200	N=C(N)c1ccc(-c2ccc(N3CCCN(CC(=O)O)C3=O)cc2)cc1
83 to 87	Nc1sc2c(c1C(=O)c1cc3ccccc3o1)CCN(Cc1ccccc1)C2
195 to 197	COc1cc(Nc2c(C#N)cnc3cc(-c4ccc(CN5CCOCC5)nc4)ccc23)c(Cl)cc1Cl
139 to 143	CCOC(=O)C1(O)CSC(O)(C(=O)OCC)CS1 (configuration not stated)

melting point [°C]	Compound
> 250	Cc1ccc(C)n1C1=CC2=C(CC1)CCc1[nH]c(=O)c(=O)n(O)c12
186 to 188	NC(=O)CCC(=NNC(N)=S)c1ccccc1
53 to 55	COC(=O)c1cc(Cl)c(C)c(Br)c1
164 to 167	CCOC(=O)Cc1ccc(NC(=O)C(CCO)NS(=O)(=O)c2ccc(Cl)cc2)cc1 (racemic)
112 to 113	Cc1ccc(C[C@H]2NC(=O)O[C@H]2c2ccc(F)cc2)cc1OC(F)(F)C(F)F (racemic)
267 to 268	O=C(Nc1cc([N+](=O)[O-])c[nH]c1=O)c1ccccc1
138 to 139	CC(C)(C)OC(=O)N1CCC[C@H]1CNc1ccc2ncc(I)n2n1
201 to 204	Fc1ccc2[nH]c3c4c(Cl)cccc4nc-3cc2c1
141 to 143	COC(=O)c1cc(OC)c([N+](=O)[O-])cc1NC(C)=O
97 to 99	C=CCNC(=O)N1CC(OCc2ccc(F)cc2)C1
> 260	COC(=O)c1ccc(-c2cc(=O)c3ccc(N)cc3o2)cc1
239 to 242	Cc1nc(-c2cc(Cl)ccc2Cl)n2c1nnc1ccc(N3CCOCC3)cc12
102	COc1ccc(C(O)(CC#N)c2ccc(OC)cc2)cc1
180 to 182	Cc1ccc(C(=O)Cn2c(=NS(=O)(=O)c3ccc(C)cc3)sc3ccccc32)cc1
122	CCCC[C@@H](NC(=O)[C@H](Cc1ccc(O)cc1)NC(=O)OC(C)(C)C)C(=O)NCC(=O)OCc1ccccc1
115 to 117	COc1cc(C(C)C)c(NC(=O)CN2CCN(CCSc3nc4ccccc4o3)CC2)c(C(C)C)c1
203	COC(=O)C1=C(C)NC(C(=N)N)=C(C(=O)OC(C)C)C1c1ccccc1[N+](=O)[O-] (configuration not stated)
116 to 118	Oc1ccc2c(c1)cc1n2CCC1
53 to 55	CSc1ccc(CCCC(=O)O)cc1
171 to 172	COc1ccc(CCNC(=O)C(N)=O)cc1OC
173 to 175	CCCSc1ncc(CC(NC(=O)C2CCCC2)C(=O)O)n1Cc1ccccc1Cl (configuration not stated)
158	C[C@@H]1CCNC[C@@H]1N(C)c1ncnc2[nH]ccc12
208 to 210	C=CCNc1nc(-c2ccc(=O)n(C(C)C)n2)c(-c2ccccc2)nc1N

Compound	melting point [°C]
O=C(O)c1ccc(C#CC2(O)CN3CCC2CC3)cc1 (configuration not stated)	288 to 290
CCCCCCC(C)(C)c1ccc(C2=CC(=O)CCC2)c(O)c1	122 to 123
COC(=O)[C@@H](C)NC(=O)CBr	51 to 52
CC(=O)Nc1ccc2c(c1)C(CN1CC=C(c3cn(C)c4cc(Cl)ccc34)CC1)CC2 (configuration not stated)	189 to 193
O=C(Nc1csc(Br)n1)C(Cl)(Cl)Cl	77 to 80
CCOC(=O)CCCn1cc(C(=O)c2ccc(OCc3ccc(C)cc3)c(O)c2)c2ccccc21	125 to 127
CN1c2ccc(Cl)cc2C(c2ccccc2)=NCC1CN1CCCCC1 (configuration not stated)	143 to 145
